Measured values as given in patent publication US9193731B2, “Antimicrobial compounds and methods of making and using the same” (Melinta Therapeutics, Inc., priority 2009, dated 2015).

The compounds below were run on Escherichia coli strain ATCC25922 (assay: standard microdilution assay to determine minimum inhibitory concentrations (MICs)). Settings: Escherichia coli strain ATCC25922, microdilution.
Format: cell-based
Method: Minimum inhibitory concentrations (MICs) are determined by the microdilution method, typically in a final volume of 100 microliters, according to protocols outlined by The Clinical and Laboratory Standards Institute [CLSI; formerly the National Committee for Clinical Laboratory Standards (NCCLS)]. See CLSI: Methods for dilution antimicrobial susceptibility tests for bacteria that grow aerobically; approved standard-fifth edition. Wayne, Pa.: NCCLS; 2000. The assays can be also be performed in microtiter trays according to conventional methodologies as published by the CLSI. See CLSI. Methods for Dilution Antimicrobial Susceptibility Tests for Bacteria That Grow Aerobically; Approved Standard—Seventh Edition. CLSI Document M7-A7 [ISBN 1-56238-587-9] CLSI, 940 West Valley Road, Suite 1400, Wayne Pa. 19087-1898 USA, 2006).
The compounds of the present invention were tested for antimicrobial activity. The compounds were run against Escherichia coli strain ATCC25922 using a standard microdilution assay to determine minimum inhibitory concentrations (MICs). […] A “N/A” means that data is unavailable. It will be recognized by one skilled in the art that the compounds can be assessed against other bacterial organisms and that the presentation of data for activity against Escherichia coli is illustrative and in no way is intended to limit the scope of the present invention. The compounds of the present invention can be assayed against a range of other microorganisms depending upon the performance activity desired to be gathered. Furthermore, the “+”, “−”, and “N/A” representation and the selection of a cutoff value of 16 micrograms/ml is also illustrative and in no way is intended to limit the scope of the present invention.

| Structure (SMILES) | E. coli ATCC25922 MIC |
| --- | --- |
| NCCCCOc1ccc(-c2cn3cc(-c4ccc(C(=O)N5CCNCC5)cc4)[nH]c3nc2=O)cc1 [Compound 847] | − (a “−” indicates that the compound has an MIC value greater than 16 micrograms/ml) |
| CN(Cc1cccnc1)C(=O)c1cc(-c2cc3cn(-c4ccc(CNCCCNC(=N)N)cc4)c(=O)nc3[nH]2)cc(N2CCNCC2)c1 [Compound 951] | − (a “−” indicates that the compound has an MIC value greater than 16 micrograms/ml) |
| N=C(N)NCCCNCc1ccc(-n2cc3cc(-c4ccc(C(NC5CCNCC5)C(F)(F)F)cc4)[nH]c3nc2=O)cc1 (centres unmarked) [Compound 944] | + (a “+” indicates that the compound has an MIC value of 16 micrograms/ml or less) |
| CN(C)Cc1ccc(-n2cc3cc(-c4ccc(S(=O)(=O)N(Cc5ccc(Cl)c(Cl)c5)C5CCNCC5)cc4)[nH]c3nc2=O)cc1 [Compound 983] | − (a “−” indicates that the compound has an MIC value greater than 16 micrograms/ml) |
| N=C(N)NCCCNCc1ccc(-n2cc3cc(C4CCN(CC(O)CN)C4)[nH]c3nc2=O)cc1 (centres unmarked) [Compound 1456] | + (a “+” indicates that the compound has an MIC value of 16 micrograms/ml or less) |
| NCCCOc1cccc(-c2cc3cn(-c4ccc(CNCCCN=C(N)N)cc4)c(=O)nc3[nH]2)c1 [Compound 1179] | + (a “+” indicates that the compound has an MIC value of 16 micrograms/ml or less) |
| N=C(N)NCCC(=O)NCc1ccc(-n2cc3cc(-c4ccc(S(=O)(=O)NC5CCNCC5)cc4)[nH]c3nc2=O)cc1 [Compound 1075] | + (a “+” indicates that the compound has an MIC value of 16 micrograms/ml or less) |
| N=C(N)NCCCNCc1ccc(-n2cc3cc(-c4cc(C(=O)Nc5cccc(C(F)(F)F)c5)cc(N5CCNCC5)c4)[nH]c3nc2=O)cc1 [Compound 1069] | + (a “+” indicates that the compound has an MIC value of 16 micrograms/ml or less) |
| NCc1ccc(-n2cc3cc(-c4ccc(S(=O)(=O)N(Cc5ccc6nonc6c5)C5CCNCC5)cc4)[nH]c3nc2=O)cc1 [Compound 961] | − (a “−” indicates that the compound has an MIC value greater than 16 micrograms/ml) |
| N=C(N)NCCCNCc1ccc(-n2cc3cc(-c4ccc(S(=O)(=O)N(CCCn5cnnc5)C5CCNCC5)cc4)[nH]c3nc2=O)cc1 [Compound 856] | + (a “+” indicates that the compound has an MIC value of 16 micrograms/ml or less) |
| N=C(N)NCCCNCc1ccc(-n2cc3cc(-c4ccc(S(=O)(=O)N(Cc5ccccc5SC(F)(F)F)C5CCNCC5)cc4)[nH]c3nc2=O)cc1 [Compound 756] | + (a “+” indicates that the compound has an MIC value of 16 micrograms/ml or less) |
| NC(=O)CCCN(C1CCNCC1)S(=O)(=O)c1ccc(-c2cc3cn(-c4ccc(CNC(=O)CCN=C(N)N)cc4)c(=O)nc3[nH]2)cc1 [Compound 1194] | − (a “−” indicates that the compound has an MIC value greater than 16 micrograms/ml) |
| CNCc1ccc(-n2cc3cc(-c4ccc(S(=O)(=O)N(CCCc5cn[nH]c5)C5CCNCC5)cc4)[nH]c3nc2=O)cc1 [Compound 1351] | − (a “−” indicates that the compound has an MIC value greater than 16 micrograms/ml) |
| N=C(N)NCCCNC(=O)c1ccc(-n2cc3cc(-c4cccc(S(=O)(=O)N(CCCn5ccc(C(F)(F)F)n5)C5CCNCC5)c4)[nH]c3nc2=O)cc1 [Compound 1124] | − (a “−” indicates that the compound has an MIC value greater than 16 micrograms/ml) |
| CN(C)Cc1ccc(-n2cc3cc(-c4ccc(S(=O)(=O)N(CCCN5CCCCC5)C5CCNCC5)cc4)[nH]c3nc2=O)cc1 [Compound 987] | − (a “−” indicates that the compound has an MIC value greater than 16 micrograms/ml) |
| N=C(N)NCCCNCc1ccc(-n2cc3cc(-c4ccc(OC(F)(F)F)c(CCCCN)c4)[nH]c3nc2=O)cc1 [Compound 2072a] | + (a “+” indicates that the compound has an MIC value of 16 micrograms/ml or less) |
| N=C(N)NCCC(NCc1ccc(-n2cc3cc(-c4ccc(S(=O)(=O)NC5CNC5)cc4)[nH]c3nc2=O)cc1)C(F)(F)F (centres unmarked) [Compound 1415] | + (a “+” indicates that the compound has an MIC value of 16 micrograms/ml or less) |
| NCc1ccc(-n2cc3cc(-c4ccc(S(=O)(=O)N(CC5CC5)C5CCNCC5)cc4)[nH]c3nc2=O)cc1 [Compound 935] | − (a “−” indicates that the compound has an MIC value greater than 16 micrograms/ml) |
| CNCc1ccc(-n2cc3cc(-c4ccc(S(=O)(=O)N(CCCN5CCCCC5)C5CCNCC5)cc4)[nH]c3nc2=O)cc1 [Compound 959] | − (a “−” indicates that the compound has an MIC value greater than 16 micrograms/ml) |
| NCCCNCc1ccc(-n2cc3cc(-c4ccc(S(=O)(=O)N(CC5CCOCC5)C5CCCNC5)cc4)[nH]c3nc2=O)cc1 (centres unmarked) [Compound 831] | + (a “+” indicates that the compound has an MIC value of 16 micrograms/ml or less) |

Same assay, conditions: Escherichia coli, ATCC25922, Escherichia coli strain ATCC25922, microdilution; read-out: E. coli ATCC25922 MIC

| MIC [µg/mL] | Structure (SMILES) |
| --- | --- |
| > 16 | NCCCN(CCCN)Cc1ccc(-n2cc3cc(-c4ccc(CO)cc4)[nH]c3nc2=O)cc1 [Compound 179] |
| < 16 | N=C(N)NCCCNCc1ccc(-n2cc3cc(C4CCCNC4)[nH]c3nc2=O)cc1 (centres unmarked) [Compound 1210] |
| < 16 | N=C(N)NCCCNCc1ccc(-n2cc3cc(-c4cccc(CCN5CCNCC5)c4)[nH]c3nc2=O)cc1 [Compound 1199] |
| < 16 | NCCCNCc1ccc(-c2cn3cc(-c4ccc(S(=O)(=O)N5CCNCC5)cc4)[nH]c3nc2=O)cc1 [Compound 789] |
| > 16 | NCc1ccc(-n2cc3cc(-c4ccccc4OCCCN4CCNCC4)[nH]c3nc2=O)cc1 [Compound 1117] |
| > 16 | O=c1nc2[nH]c(-c3ccc(S(=O)(=O)NC4CCNCC4)cc3)cc2cn1-c1cccc(OCC2CCNCC2)c1 [Compound 1141] |
| > 16 | NC1CCN(Cc2ccc(-n3cc4cc(-c5ccc(S(=O)(=O)N6CCN7CCC6CC7)c(F)c5)[nH]c4nc3=O)cc2)CC1 [Compound 264] |
| > 16 | CS(=O)(=O)c1ccc(-c2cn3cc(-c4ccc(CNCCCN)cc4)c(=O)nc3[nH]2)cc1 [Compound 631] |
| > 16 | NCCc1c[nH]c2cc(-n3cc4cc(CCS(=O)(=O)C5CCNCC5)[nH]c4nc3=O)ccc12 [Compound 1278] |
| > 16 | CO[C@H](CN)COc1cccc(-c2cc3cn(-c4ccc(CN)cc4)c(=O)nc3[nH]2)c1 [Compound 1428] |
| < 16 | CS(=O)(=O)c1ccc(-c2cn3cc(-c4ccc(CN(CCCN)CCCNC(=N)N)cc4)c(=O)nc3[nH]2)cc1 [Compound 635] |
| > 16 | NCCCCN1CCC(n2cc3cc(-c4ccc(F)cc4)[nH]c3nc2=O)C1 (centres unmarked) [Compound 559] |
| < 16 | NCCCNCc1ccc(-n2cc3cc(-c4ccc(S(=O)(=O)N(C5CCNCC5)C5CCOCC5)cc4)[nH]c3nc2=O)cc1 [Compound 726] |
| > 16 | NCCCCN1CC(n2cc3c(nc2=O)[nH]c2ccccc23)C1 [Compound 590] |
| < 16 | N=C(N)NCCCNCc1ccc(-n2cc3cc(CCNC4CCNCC4)[nH]c3nc2=O)cc1 [Compound 719] |
| > 16 | Cn1cc2cc(-c3ccc(C(=O)NC4CCNCC4)cc3)[nH]c2nc1=O [Compound 581] |
| > 16 | NCc1ccc(-n2cc3cc[nH]c3nc2=O)cc1 [Compound 142] |
| < 16 | NCCCN(CCCN)Cc1ccc(-n2cc3cc(-c4ccc(S(=O)(=O)N(Cc5ccc(Cl)c(Cl)c5)C5CCNCC5)cc4)[nH]c3nc2=O)cc1 [Compound 235] |
| > 16 | N=C(N)NCCCNCc1ccc(-n2cc3cc(-c4cccc(OCCCO)c4)[nH]c3nc2=O)cc1 [Compound 1110] |
| > 16 | NCCCN(CCCN)Cc1ccc(-n2cc3cc(-c4ccc(C(=O)N[C@H]5CC[C@H](O)CC5)cc4)[nH]c3nc2=O)cc1 [Compound 192] |
| > 16 | Cc1cc(CN(C(=O)c2ccc(-c3cc4cn(-c5ccc(CN(CCCN)CCCN)cc5)c(=O)nc4[nH]3)cc2)C2CCNCC2)no1 [Compound 226] |
| > 16 | NCc1ccc(-n2cc3cc(-c4cccc(OCCOc5ccc(Cl)cc5)c4)[nH]c3nc2=O)cc1 [Compound 1127] |
| > 16 | CNCc1ccc(-n2cc3cc(-c4ccc(S(=O)(=O)N(CCCn5cccn5)C5CCNCC5)cc4)[nH]c3nc2=O)cc1 [Compound 1020] |
| < 16 | NCCCNCc1ccc(-n2cc3cc(CCS(=O)(=O)NC4CCNCC4)[nH]c3nc2=O)cc1 [Compound 881] |
| > 16 | NCCCN(CCCN)Cc1ccc(-n2cc3cc(-c4ccc(C(=O)Nc5cccnc5)cc4)[nH]c3nc2=O)cc1 [Compound 195] |
| > 16 | CNCc1ccc(-n2cc3cc(-c4ccc(S(=O)(=O)N(CCCN5CCCC(O)C5)C5CCNCC5)cc4)[nH]c3nc2=O)cc1 (centres unmarked) [Compound 1079] |
| < 16 | NCCCNCc1ccc(-n2cc3cc(-c4ccc(S(=O)(=O)N(CC5CC5)C5CCNCC5)cc4)[nH]c3nc2=O)cc1 [Compound 711] |
| > 16 | NCc1ccc(-n2cc3cc(-c4cccc(S(=O)(=O)N(CCn5cccc5)C5CCNCC5)c4)[nH]c3nc2=O)cc1 [Compound 1187] |
| > 16 | N=C(N)NCCCCOc1ccc(-c2cn3cc(-c4ccc(Br)cc4)[nH]c3nc2=O)cc1 [Compound 813] |
| > 16 | N=C(N)NCCCNCc1ccc(-n2cc3cc(CN4CCS(=O)(=O)CC4)[nH]c3nc2=O)cc1 [Compound 628] |
